The values that follow come from patent US8173668B1 (Alcon Research, Ltd., priority 2007, dated 2012).

The target in data set [1] is T1, B2-receptors in h-TM cells (Homo sapiens, UniProt P30411).
T1 construct: B2-receptor proteins in h-TM, h-CM and h-NPE cells; endogenous in cells; host or cells: human trabecular meshwork (h-TM), human ciliary muscle (h-CM) and human non-pigmented ciliary epithelial (h-NPE) cells
T1 sequence (P30411 1-391): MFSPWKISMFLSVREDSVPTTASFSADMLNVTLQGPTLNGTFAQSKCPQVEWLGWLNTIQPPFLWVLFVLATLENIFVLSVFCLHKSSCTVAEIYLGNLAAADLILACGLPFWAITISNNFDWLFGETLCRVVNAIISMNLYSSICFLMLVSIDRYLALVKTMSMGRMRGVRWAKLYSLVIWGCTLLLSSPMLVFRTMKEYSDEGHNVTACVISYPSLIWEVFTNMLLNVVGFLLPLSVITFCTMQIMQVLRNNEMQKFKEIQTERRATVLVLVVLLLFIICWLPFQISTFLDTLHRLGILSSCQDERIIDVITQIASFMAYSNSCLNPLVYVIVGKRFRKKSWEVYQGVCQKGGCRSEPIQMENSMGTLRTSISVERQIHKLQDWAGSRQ
The data set is described as follows: [Ca2+]i mobilization (FLIPR) in h-TM cells, agonist mode. Particulars: h-TM cells, mean ± SEM. In kind it is cell-based. The procedure: (§1) On the day of the experiment, one vial of FLIPR Calcium Assay Kit dye is re-suspended in 50 mL of a FLIPR buffer consisting of Hank's Balanced Salt Solution (HBSS), 20 mM HEPES, and 2.5 mM probenecid, pH 7.4. Cells are loaded with the calcium-sensitive dye by addition of an equal volume (50 μL) to each well of the 96-well plate and incubated with dye for 1 h at 23° C. After this time, the test compound plate and cell plate are placed in the FLIPR instrument. At the beginning of an experimental run, a signal test is performed to check the basal fluorescence signal from the dye-loaded cells and the uniformity of the signal across the plate. The basal fluorescence is adjusted between 8000-12000 counts by modifying the exposure time, the camera F-stop, or the laser power. Instrument settings for a typical assay are the following: laser power 0.3-0.6 W, camera F-stop F/2, and exposure time 0.4 sec.
(§2) Fluorescence data are collected in real-time at 1.0 sec intervals for the first 60 secs and at 6.0 sec intervals for an additional 120 secs. […] The data are then analyzed using an automated, iterative, sigmoidal curve-fitting computer program to obtain the potency and intrinsic activities of the test agents as previously described (Sharif et al. J. Pharmacol. Exp. Ther. 286: 1094-1102, 1998; Sharif et al. Invest. Ophthalmol. Vis. Sci. 39:2562-2571, 1998; Kelly et al. J. Pharmacol. Exp. Ther. 304: 238-245, 2003). The sources of materials and reagents for such assays can be found in the references cited above.

The target in data set [2] is T2, B2-receptors in h-CM cells (Homo sapiens, UniProt P30411).
T2 construct: B2-receptor proteins in h-TM, h-CM and h-NPE cells; endogenous in cells; host or cells: human trabecular meshwork (h-TM), human ciliary muscle (h-CM) and human non-pigmented ciliary epithelial (h-NPE) cells
T2 sequence (P30411 1-391): T1 sequence (P30411 1-391)
The data set is described as follows: [Ca2+]i mobilization (FLIPR) in h-CM cells, agonist mode. Format: cell-based. The conditions noted are these: h-CM cells, mean ± SEM. The protocol:
as §1, §2

A further data set has as its system h-CM cells. The data set is described as follows: Prostaglandin production in h-CM cells. Format: cell-based, human. Particulars: 1-10 μM. The protocol:
A functional assay to discover BK agonists may involve the measurement of prostaglandin E2 (PGE2) production (Wiernas et al. Brit. J. Pharmacol. 123: 1127-1137, 1998), for instance, in cells isolated from human or animal ocular or non-ocular tissues, or cells expressing recombinant (preferably human) BK receptors. Cells expressing BK receptors are seeded in 48-wells culture plates and allowed to reach confluence. After this time the cells are rinsed twice with 0.5 mL of phosphate buffered saline and incubated with the test agent made up in 0.5 mL Dulbeco's modified Eagle's medium (DMEM)/F-12 for 1 h at 37° C. […]
After this incubation, all tubes are placed in an ice-bath and 1 ml cold precipitating reagent supplied in the kit is added to the tubes, the content mixed and incubated for 25 min at 4° C. […] The supernatants of all tubes are decanted as specified in the kit instructions and the RIA samples analyzed on a gamma-counter. The levels of PGE2 generated by the test agent are then quantified in comparison with the PGE2-standard curve. Dose-response data for the test agent are constructed and the potency and intrinsic activity determined as described above for other assays. […]

The nature of data set [3]: Ocular pharmacokinetic study in rabbit eyes, single topical ocular dose. In kind it is in vivo. Particulars: single 300 μg topical ocular dose; for concentration at 0.5 hr: 0.5 hr post-dosing; for concentration at 1 hr: 1.0 hr post-dosing; for concentration at 3 hr: 3 hr post-dosing; for concentration at 6 hr: 6 hr post-dosing. The procedure:
In order to better understand the time-course of action of FR-190997, a pharmacokinetic study was performed in rabbit eyes using a single 300 μg topical ocular dose of FR-190997. […] Due to the activation of multiple signaling pathways by BK (see above), and presumably FR-190997, and the convergence and amplification of the down-stream biochemical reactions in the target cells/tissues, it is quite possible that activation of only a few BK receptors by FR-190997 may result in quite profound IOP-lowering.

A further data set has as its system cats. The data set is described as follows: IOP-lowering activity in cats. Format: in vivo. The source says: Some obvious drawbacks and reasons for the lack of consistent observations noted above are probably related to species differences in the effects of BK on IOP changes and on the fact that BK is a labile peptide that can easily and rapidly be inactivated by kininases and other proteases when it comes into contact with body fluids (Hall, Pharmacol. Ther., 56, 131-190, 1992). Additionally, topical ocular administration of peptides such as BK are confounded by the potential lack of or little bioavailability through the cornea to reach the anterior segment of the eye. […] This is probably related to the attainment of a relevant concentration in the aqueous humor and ciliary body when the compound was administered topical ocularly.

[4] abbreviates: read-out: Potency (EC50), [Ca2+]i mobilization.
Setting [5] is: aqueous humor, read-out: Aqueous Humor Concentration.
Setting [6] is: ciliary body, read-out: Ciliary Body Concentration.

Structures are written as SMILES. Where two headings read alike, the source gives them in different places.

As to `CNC(=O)c1ccc(/C=C/C(=O)NCC(=O)N(C)c2ccc(Cl)c(COc3cccc4c(OCc5ccccn5)cc(C)nc34)c2Cl)cc1` [FR-190997], in data set [1] (HTM, read-out: Intrinsic Activity (Emax, % max relative to BK)), the Emax (usually the greatest response seen or fitted, relative to the assay's reference) was determined as 86%. Moreover, the EC50 – broadly, the concentration needed to bring the measured effect to its halfway point – in data set [1] (setting [4]) worked out at 167 ± 29 nM. The Emax in data set [2] (read-out: Intrinsic Activity (Emax, % max relative to BK)) was 63%. Also, the EC50 in data set [2] (setting [4]) amounted to 174 ± 21 nM. The compound further registered a production of prostaglandins with h-CM cells of 1.75 fold above basal. In data set [3] (setting [5]), the concentration at 0.5 hr amounted to 0.9 ± 0.2 nM, the concentration at 1 hr was 16 ± 4.7 nM, the concentration at 3 hr amounted to 139 ± 114 nM and the concentration at 6 hr was 16.6 ± 4.6 nM. Also, the concentration at 1.5 hr in data set [3] (aqueous humor, 1.5 hr post-dosing) is 3.1 ± 1.1 nM. For the same compound, in data set [3] (setting [6]), the concentration at 0.5 hr came out at 2.75 ± 1.7 nM, the concentration at 1 hr is 5.52 ± 1.68 nM, the concentration at 3 hr was 26.4 ± 7.9 nM and the concentration at 6 hr came to 37 ± 10.6 nM. Moreover, in data set [3], the “peak aqueous humor level” value stood at 139 nM and the “time of peak aqueous humor level post-dosing” value was 3 h. Besides, the “ability to lower IOP” value with cats is recorded as “unable to lower IOP”.
